Results from publication PMC12068666, “Synthesis of thiazole-integrated pyrrolotriazinones: evaluations of cytotoxicity and effects on PI3K levels in cancer cells” (Turkish Journal of Chemistry, 2025).
Entries after “also recorded” stand apart in the source; their conditions may differ.

Assays:
MCF-7 cells = test: MTT assay, antiproliferative activity, MCF-7; format: cell-based, human; conditions: for IC50: Homo sapiens, MCF7, MTT, 24 h treatment, mean ± SD; for Selectivity Index (SI) MCF-7: IC50 of healthy cells (NIH/3T3)/IC50 of cancer cells
Description: (§1) MCF-7 (human ER + breast cancer, HTB-22, USA), A549 (human nonsmall cell lung cancer, ATTC CRM-CCL-185, USA), HepG2 (human liver cancer, ATTC HB-8065, USA), and NIH/3T3 (mouse embryonic fibroblast, ATCC, CRL-1658, USA) cells were maintained in DMEM supplemented with 10% fetal bovine serum and 1% penicillin/streptomycin. The cells were maintained under appropriate conditions (37 °C, 5% CO2).
(§2) The antiproliferative activity of the newly synthesized compounds was measured using the MTT assay as described in a previous study. Briefly, cells were seeded at a density of 6 × 10^3 cells/well and incubated for 24 h in a 37 °C humidified incubator with 5% CO2. Afterwards, the cells were treated with increasing concentrations (1, 2.5, 5, 10, 25, 50, 75, and 100 μM) of compounds and incubated for another 24 h. Moreover, some cells were incubated with doxorubicin (1, 5, 10, 25, and 50 μM) for comparison, while other cells treated only with 1% DMSO was used as the solvent control. After incubation, 20 μL of MTT solution (5 mg/mL in PBS) was added to each well, and the plate was incubated for 4 h under the same conditions. Following this period, the medium was discarded and replaced with DMSO. The absorbance of dissolved formazan crystals was measured using a multiplate reader. The IC50 value and the selectivity index of each compound were calculated as previously described.
(§3) The antiproliferative effect of all newly synthesized thiazole-integrated pyrrolotriazinone derivatives were assessed against cancer cell lines (MCF-7, A549, and HepG2) as well as a healthy cell line (NIH/3T3) using the MTT assay. The IC50 values were determined through the nonlinear regression algorithm for log (inhibitor) versus normalized response-variable slope, as implemented in GraphPad [Y = 100/(1 + 10^X−LogIC50), where X represents the logarithm of the inhibitor concentration and Y denotes the response]. Additionally, Selectivity Indices (SI: IC50 of healthy cells/IC50 of cancer cells) were calculated.

A549 cells = test: MTT assay, antiproliferative activity, A549; format: cell-based, human; conditions: for IC50: Homo sapiens, A549, MTT, 24 h treatment, mean ± SD; for Selectivity Index (SI) A549: IC50 of healthy cells (NIH/3T3)/IC50 of cancer cells
Description: as §1, §2, §3

HepG2 cells = test: MTT assay, antiproliferative activity, HepG2; format: cell-based, human; conditions: for IC50: Homo sapiens, HepG2, MTT, 24 h treatment, mean ± SD; for Selectivity Index (SI) HepG2: IC50 of healthy cells (NIH/3T3)/IC50 of cancer cells
Description: as §1, §2, §3

NIH/3T3 cells = test: MTT assay, healthy cell line NIH/3T3; format: cell-based; conditions: Mus musculus, NIH3T3, 24 h treatment, mean ± SD
Description: as §1, §2, §3

PI3K [1] = test: PI3K protein levels by ELISA in MCF-7 cells; format: cell-based, human; conditions: IC50 concentration, 24 h, compared to 1% DMSO control
Description: (§4) The protein levels of PI3K in MCF-7 and HepG2 cells were assessed using enzyme-linked immunosorbent assay (ELISA) kits. […] After the incubation period, the medium was collected, and PI3K protein levels were measured using ELISA kits according to the manufacturer’s instructions (Cat no: ELK9879, ELK Biotechnology, Denver, USA).

PI3K [2] = test: PI3K protein levels by ELISA in HepG2 cells; format: cell-based, human; conditions: IC50 concentration, 24 h, compared to 1% DMSO control
Description: as §4

SMILES	IC50 (MCF-7 cells)	Selectivity Index (SI) MCF-7 (MCF-7 cells)	IC50 (A549 cells)	Selectivity Index (SI) A549 (A549 cells)	IC50 (HepG2 cells)	Selectivity Index (SI) HepG2 (HepG2 cells)	IC50 (NIH/3T3 cells)	PI3K protein levels in MCF-7 cells (PI3K [1])	PI3K protein levels in HepG2 cells (PI3K [2])
Cc1csc(-n2ncc3cccn3c2=O)n1 [Compound 13, 3-(4-methylthiazol-2-yl)pyrrolo[1,2-d][1,2,4]triazin-4(3H)-one]	> 100 µM	1.01	> 100 µM	0.94	> 100 µM	1.32	> 100 µM		
O=c1n(-c2nc(-c3ccccc3)cs2)ncc2cccn12 [Compound 14, 3-(4-phenylthiazol-2-yl)pyrrolo[1,2-d][1,2,4]triazin-4(3H)-one]	> 100 µM	0.96	> 100 µM	1.25	> 100 µM	1.04	> 100 µM		
Cc1ccc(-c2csc(-n3ncc4cccn4c3=O)n2)cc1 [Compound 15, 3-(4-(p-tolyl)thiazol-2-yl)pyrrolo[1,2-d][1,2,4]triazin-4(3H)-one]	> 100 µM	1.01	> 100 µM	0.84	> 100 µM	0.85	> 100 µM		
O=c1n(-c2nc(-c3ccc(O)cc3)cs2)ncc2cccn12 [Compound 16, 3-(4-(4-hydroxyphenyl)thiazol-2-yl)pyrrolo[1,2-d][1,2,4]triazin-4(3H)-one]	> 100 µM	1.10	> 100 µM	1.32	> 100 µM	1.02	> 100 µM		
COc1ccc(-c2csc(-n3ncc4cccn4c3=O)n2)cc1 [Compound 17, 3-(4-(4-methoxyphenyl)thiazol-2-yl)pyrrolo[1,2-d][1,2,4]triazin-4(3H)-one]	> 100 µM	1.34	> 100 µM	1.44	> 100 µM	1.22	> 100 µM		
O=c1n(-c2nc(-c3ccc([N+](=O)[O-])cc3)cs2)ncc2cccn12 [Compound 18, 3-(4-(4-nitrophenyl)thiazol-2-yl)pyrrolo[1,2-d][1,2,4]triazin-4(3H)-one]	79.19 ± 0.61 µM	2.08	> 100 µM	1.51	> 100 µM	1.60	> 100 µM		
O=c1n(-c2nc(-c3ccc(C(F)(F)F)cc3)cs2)ncc2cccn12 [Compound 19, 3-(4-(4-(trifluoromethyl)phenyl)thiazol-2-yl)pyrrolo[1,2-d][1,2,4]triazin-4(3H)-one]	61.8 ± 1.42 µM	2.41	79.5 ± 1.13 µM	1.87	52.8 ± 0.79 µM	2.82	> 100 µM		
O=c1n(-c2nc(-c3ccc(F)cc3)cs2)ncc2cccn12 [Compound 20, 3-(4-(4-fluorophenyl)thiazol-2-yl)pyrrolo[1,2-d][1,2,4]triazin-4(3H)-one]	39.8 ± 0.54 µM	4.93	44.5 ± 0.51 µM	4.41	69.7 ± 1.26 µM	2.81	> 100 µM		
O=c1n(-c2nc(-c3ccc(Cl)cc3)cs2)ncc2cccn12 [Compound 21, 3-(4-(4-chlorophenyl)thiazol-2-yl)pyrrolo[1,2-d][1,2,4]triazin-4(3H)-one]	11.2 ± 0.12 µM	9.51	39.2 ± 1.41 µM	2.72	10.2 ± 0.95 µM	10.40	> 100 µM	significantly reduced; also recorded: did reduce PI3K levels	did not alter PI3K levels
O=c1n(-c2nc(-c3ccc(Br)cc3)cs2)ncc2cccn12 [Compound 22, 3-(4-(4-bromophenyl)thiazol-2-yl)pyrrolo[1,2-d][1,2,4]triazin-4(3H)-one]	55.6 ± 1.05 µM	1.68	71.2 ± 0.74 µM	1.31	51.85 ± 0.23 µM	1.80	93.46 ± 0.74 µM		
COc1ccc(-c2csc(-n3ncc4cccn4c3=O)n2)cc1OC [Compound 23, 3-(4-(3,4-dimethoxyphenyl)thiazol-2-yl)pyrrolo[1,2-d][1,2,4]triazin-4(3H)-one]	15.2 ± 0.183 µM	5.49	43.3 ± 1.09 µM		17.2 ± 0.81 µM	4.85	83.44 ± 0.15 µM		
O=c1n(-c2nc(-c3ccc(F)c(F)c3)cs2)ncc2cccn12 [Compound 24, 3-(4-(3,4-difluorophenyl)thiazol-2-yl)pyrrolo[1,2-d][1,2,4]triazin-4(3H)-one]	33.2 ± 0.49 µM	4.72	45.23 ± 0.41 µM	3.46	25.3 ± 1.06 µM	6.19	> 100 µM		
O=c1n(-c2nc(-c3ccc(F)c(Cl)c3)cs2)ncc2cccn12 [Compound 26, 3-(4-(3-chloro-4-fluorophenyl)thiazol-2-yl)pyrrolo[1,2-d][1,2,4]triazin-4(3H)-one]	14.2 ± 0.42 µM		25.2 ± 0.39 µM	5.53	15.1 ± 0.61 µM	9.22	> 100 µM	significantly reduced	
O=c1n(-c2nc(-c3ccc(-c4ccccc4)cc3)cs2)ncc2cccn12 [Compound 28, 3-(4-([1,1′-biphenyl]-4-yl)thiazol-2-yl)pyrrolo[1,2-d][1,2,4]triazin-4(3H)-one]	63.17 ± 0.35 µM	2.79	78.23 ± 0.05 µM	2.25	44.8 ± 1.06 µM	3.93	> 100 µM		
O=c1n(-c2nc(-c3ccc4ccccc4c3)cs2)ncc2cccn12 [Compound 29, 3-(4-(naphthalen-2-yl)thiazol-2-yl)pyrrolo[1,2-d][1,2,4]triazin-4(3H)-one]	> 100 µM	1.03	> 100 µM	1.19	> 100 µM	1.26	> 100 µM		
O=c1n(-c2nc(-c3cc4ccccc4o3)cs2)ncc2cccn12 [Compound 30, 3-(4-(benzofuran-2-yl)thiazol-2-yl)pyrrolo[1,2-d][1,2,4]triazin-4(3H)-one]	> 100 µM	1.57	> 100 µM	1.51	> 100 µM	1.90	> 100 µM		
O=c1n(-c2nc(-c3ccco3)cs2)ncc2cccn12 [Compound 31, 3-(4-(furan-2-yl)thiazol-2-yl)pyrrolo[1,2-d][1,2,4]triazin-4(3H)-one]	91.2 ± 1.06 µM	1.91	> 100 µM	1.67	> 100 µM	1.69	> 100 µM		
O=c1n(-c2nc(-c3cccs3)cs2)ncc2cccn12 [Compound 32, 3-(4-(thiophen-2-yl)thiazol-2-yl)pyrrolo[1,2-d][1,2,4]triazin-4(3H)-one]	83.71 ± 0.81 µM	2.43	> 100 µM	1.68	> 100 µM	2.00	> 100 µM		
COc1cccc2c1C(=O)c1c(O)c3c(c(O)c1C2=O)C[C@@](O)(C(=O)CO)C[C@@H]3O[C@H]1C[C@H](N)[C@H](O)[C@H](C)O1 [Dox, doxorubicin, reference compound]	1.34 ± 0.07 µM	2.6	0.61 ± 0.12 µM	5.83	1.27 ± 0.24 µM	2.8	3.56 ± 0.02 µM		
